The text below walks through data of US7851654B2, “Chalcone derivatives, pharmaceutically acceptable salt, method for preparation and uses thereof” (Industry-Academic Cooperation Foundation Gyeongsang …, priority 2006, dated 2010).

The target of one data set is β-amylase. The data set is described as follows: β-amylase inhibitory activity via analysis of reducing sugars. The note with it: 1% starch substrate, DNS reagent, same manner as α-amylase test. The format is biochemical. The method, then: (§1) α-amylase, a kind of glycosidase enzymes, was used to identify glycosidase inhibitory activities of the chalcone derivatives of the present invention. Using 1% starch as substrate, α-amylase activities were measured by measuring the amounts in that α-amylases hydrolyzed the substrates after adding DNS (1% dinitrosalicylic acid, 12% potassium sodium tartrate in 0.4 M NaOH), a color reagent (Bioorg. Med. Chem. Lett., 2002, 12, 2335-2339). 1% starch as substrate was dissolved in acetate buffer (0.05 M, pH 4.5) in test tubes. After preprocessing at 37° C. for ten minutes, the resultant solutions were quantified as 100 μl in tubes. α-amylases of 0.25 unit/ml, prepared with the acetate buffer, were quantified as 100 μl. Subsequently, the chalcone derivatives prepared in Examples 2, 5, 6, 8, 9, 10, 11 and 12 in accordance with the present invention were dissolved in 50% DMSO solvent and quantified as 50 μl, respectively. After reacting the samples quantified at 37° C. for twenty minutes, 300 μl of DNS, the color reagent, were added thereto. Next, the resultant solutions were reacted in boiled water for ten minutes and cooled to measure absorbance at 540 nm, thus obtaining amylase inhibitory rates via equation 1 above. Measured IC50 values of the chalcone derivatives prepared in Examples 2, 5, 6, 8, 9, 10, 11 and 12 for α-amylases were depicted in table 3.
β-amylase inhibitory activities were measured in the same manner as Experimental example 2 except for using β-amylases as glycosidase and the IC50 values were depicted in Table 3 above.

The next data set has as its target α-amylase. The data set is described as follows: α-amylase inhibitory activity via analysis of reducing sugars. The format is biochemical. Particulars: 1% starch substrate, DNS reagent, pH 4.5, 37° C., twenty minutes. The procedure:
as §1

In data set [1] the test system is B-16 melanoma. Nature of the data set: Melanin synthesis inhibitory activity in B-16 melanoma. The format is cell-based, mice. Particulars: Mus musculus, B16, DMEM with a-MSH and theophylline, read-out: IC50 melanin synthesis inhibition. The method, then:
To identify the melanin synthesis inhibitory activities of the chalcone derivatives of the present invention, whitening effects were measured using B-16 melanoma. 2 ml of B-16 melanoma, derived from black mice, was added to the respective wells in concentration of 2×10^4 cells/well on a 6 well plate using DMEM with 10% FBS and cultivated under the conditions of 5% CO2 and 37° C. for twenty four hours. Media were removed after the cultivation and the DMEM used was replaced with DMEM having 10% FBS, 0.2 mM a-MSH and 2 mM theophylline. Subsequently, appropriate amounts of the chalcone compounds of Examples 2 to 6, 8, 13, 14, 17 and 18 were diluted with the same media and added thereto, respectively, to be cultivated under the conditions of 5% CO2 and 37° C. until the cells grew above 80%. The media were removed after the cultivation and the resultant compounds were washed with PBS and processed with […] to collect cell pellets. Collected pellets were moved to 1.5 ml of Eppendorf tubes to be centrifuged at […] for ten minutes. Then, the pellets in which supernatants were removed were dried in an incubator of 60° C. for twenty four hours. Subsequently, 1N NaOH was added thereto to dissolve melanins in the cells. Dissolved melanins are diluted with appropriate amounts of PBS to measure absorbance at 490 nm, thus obtaining melanin inhibitory rates via Equation 1 above (T. Mosmann, J. Immunol. Methods, 1983, 65, 55; P. R. Gorden, J. Invest. Dermatol., 1989, 92, 565). As a comparative example, the same experiment was carried out using albutin.

The test system of data set [2] is B-16 melanoma. Nature of the data set: Cytotoxicity in B-16 melanoma. The format is cell-based, mice. Particulars: melanin test not performed because of cytotoxicity.

Structures are written as SMILES.

With `Nc1ccc(C(=O)/C=C/c2ccc(O)cc2)cc1` [Example 8, 4′-amino-4-hydroxychalcone], the “IC50 β-amylase” value at β-amylase is listed as “NI (NI denotes the cases where the inhibitory rates were below 20% measured when the concentration of the chalcone derivatives was 200 μM or means that there were no inhibitory activities for α-, or β-amylases)”. The results for the IC50 on α-amylase and in the data set with B-16 melanoma [1] were 269 µM and 12.5 µM, respectively.

For `O=C(/C=C/c1ccc(O)c(O)c1)c1ccc(NS(=O)(=O)c2ccc([N+](=O)[O-])cc2)cc1` [Example 10, 4′-(p-nitrobenzenesulfonylamino)-3,4-dihydroxychalcone], the IC50 was found to be 201 µM at β-amylase and 37.3 µM at α-amylase.

Turning to `Cc1ccc(S(=O)(=O)Nc2cccc(C(=O)/C=C/c3ccc(O)cc3)c2)cc1` [Example 14, 3′-(p-toluenesulfonylamino)-4-hydroxychalcone], the IC50 with B-16 melanoma [1] was 25.6 µM.

For `Nc1cccc(C(=O)/C=C/c2ccc(O)cc2)c1` [Example 13, 3′-amino-4-hydroxychalcone], in the data set on B-16 melanoma [2], the “cytotoxicity of the compounds” value is given as “ND (ND denotes the cases where the experiments on the melanin synthesis inhibitory activities in B-16 melanoma were not performed since the cytotoxicity of the compounds was shown as more than 50%)”.

On to `O=C(/C=C/c1ccc(O)cc1)c1ccc(NS(=O)(=O)c2ccc([N+](=O)[O-])cc2)cc1` [Example 4, 4′-(p-nitrobenzenesulfonylamino)-4-hydroxychalcone], for which the “cytotoxicity of the compounds” value in the data set with B-16 melanoma [2] is given as “ND^a (ND denotes the cases where the experiments on the melanin synthesis inhibitory activities in B-16 melanoma were not performed since the cytotoxicity of the compounds was shown as more than 50%)”.

On to `O=C(/C=C/c1ccc(O)cc1)c1ccc(O)cc1` [Example 18, 4′,4-dihydroxychalcone], for which the “cytotoxicity of the compounds” value in the data set with B-16 melanoma [2] is given as “ND (ND denotes the cases where the experiments on the melanin synthesis inhibitory activities in B-16 melanoma were not performed since the cytotoxicity of the compounds was shown as more than 50%)”.

As to `OC[C@H]1O[C@@H](Oc2ccc(O)cc2)[C@H](O)[C@@H](O)[C@@H]1O` [Albutin, albutin, reference compound], in the data set with B-16 melanoma [1], the IC50 stood at 92 µM.

As for `O=C(/C=C/c1ccc(O)cc1)c1ccccc1` [Example 17, 4-hydroxychalcone], the “cytotoxicity of the compounds” value in the data set on B-16 melanoma [2] is given as “ND (ND denotes the cases where the experiments on the melanin synthesis inhibitory activities in B-16 melanoma were not performed since the cytotoxicity of the compounds was shown as more than 50%)”.

Take `O=C(/C=C/c1ccc(O)cc1)c1ccc(NS(=O)(=O)c2ccc(F)cc2)cc1` [Example 5, 4′-(p-fluorobenzenesulfonylamino)-4-hydroxychalcone]: the IC50 on β-amylase stood at 127 µM; with B-16 melanoma [1], 23.7 µM. The “IC50 α-amylase” value against α-amylase was “NI^a (NI denotes the cases where the inhibitory rates were below 20% measured when the concentration of the chalcone derivatives was 200 μM or means that there were no inhibitory activities for α-, or β-amylases)”.

In the case of `CS(=O)(=O)Nc1ccc(C(=O)/C=C/c2ccc(O)c(O)c2)cc1` [Example 12, 4′-(methanesulfonylamino)-3,4-dihydroxychalcone], the figures for the IC50 against β-amylase and against α-amylase were 24.8 µM and 16.8 µM, respectively.

`Cc1ccc(S(=O)(=O)Nc2ccc(C(=O)/C=C/c3ccc(O)cc3)cc2)cc1` [Example 2, 4′-(p-toluenesulfonylamino)-4-hydroxychalcone]: the IC50 is 247 µM against β-amylase, 87.8 µM against α-amylase and 14.8 µM in the data set with B-16 melanoma [1].

Consider `O=C(/C=C/c1ccc(O)c(O)c1)c1ccc(NS(=O)(=O)c2ccccc2)cc1` [Example 9, 4′-benzenesulfonylamino-3,4-dihydroxychalcone], for which, at β-amylase, the IC50 was 206 µM. For the same compound, the “IC50 α-amylase” value against α-amylase is given as “NI (NI denotes the cases where the inhibitory rates were below 20% measured when the concentration of the chalcone derivatives was 200 μM or means that there were no inhibitory activities for α-, or β-amylases)”.

For `O=C(/C=C/c1ccc(O)cc1)c1ccc(NS(=O)(=O)c2ccccc2)cc1` [Example 3, 4′-benzenesulfonylamino-4-hydroxychalcone], the IC50 in the data set on B-16 melanoma [1] was 20.6 µM.

As for `CS(=O)(=O)Nc1ccc(C(=O)/C=C/c2ccc(O)cc2)cc1` [Example 6, 4′-(methanesulfonylamino)-4-hydroxychalcone], the IC50 at β-amylase turned out to be 65 µM; against α-amylase it was 194 µM; in the data set with B-16 melanoma [1], 20.3 µM.

In the case of `O=C(/C=C/c1ccc(O)c(O)c1)c1ccc(NS(=O)(=O)c2ccc(F)cc2)cc1` [Example 11, 4′-(p-fluorobenzenesulfonylamino)-3,4-dihydroxychalcone], the “IC50 β-amylase” value on β-amylase is “NI (NI denotes the cases where the inhibitory rates were below 20% measured when the concentration of the chalcone derivatives was 200 μM or means that there were no inhibitory activities for α-, or β-amylases)”. For the same compound, on α-amylase, the “IC50 α-amylase” value is recorded as “NI (NI denotes the cases where the inhibitory rates were below 20% measured when the concentration of the chalcone derivatives was 200 μM or means that there were no inhibitory activities for α-, or β-amylases)”.
